The test system of series [1] is HT1080.hPSMA xenografts. In words: Payload study and combination therapy with L19-IL2 in HT1080.hPSMA tumor model (tumor volume). It counts as in vivo, mice. The conditions noted are these: conjugates 250 nmol/kg i.v. days 7 and 11; L19-IL2 2.5 mg/kg i.v. days 8, 10, 12; n=3/4. The method, then: HT1080.hPSMA tumor cells were grown to 90% confluence and detached with Trypsin-EDTA 0.05%. Cells were resuspended in Hank's Balanced Salt Solution (HBSS) at a 5×10^7 cells/mL density. 100 μL of HT1080.hPSMA cells (5×10^6 cells) were injected subcutaneously in the right flank of female athymic Balb/c AnNRj-Foxn1 mice (6 to 8 weeks of age). Tumors were grown until an average volumes of ˜100 mm^3 was reached.
Tumor-bearing mice were randomized into groups of 3 or 4 animals. A 50 μM solution (2% DMSO, 250 nmol/kg; 100 μL) of Conjugate 1, 5, or 6, L19-IL2 (SEQ ID NO: 10, 0.5 mg/mL, 2.5 mg/kg; 100 μL), PBS (100 μL), or L19-IL2 buffer (NaH2PO4 6.7 mM, NaCl 20 mM, KCl 1.8 mM, Mannitol 133 mM, Tween80 0.1% v/v, Glycerol 1% w/v; 100 μL) was injected intravenously (i.e., systemic administration through tail-vein) with the following schedule:
Groups of Conjugates 1, 5, or 6: two separate injections with a 3-day break in between (day 7 and day 11 after tumor implantation).
L19-IL2 group: three separate injections with a 1-day break in between (day 8, day 10, and day 12 after tumor implantation).
Combination therapy groups: two separate injections of Conjugate 1, 5, or 6 with a 3-day break in between (day 7 and day 11 after tumor implantation) and three separate injections of L19-IL2 with a 1-day break in between (day 8, day 10, and day 12 after tumor implantation). […]

The next series deals with HT1080.hPSMA tumor. Description: MMAE release from conjugates in HT1080.hPSMA tumor model (comparison and timepoint study). It counts as in vivo, mice. The conditions noted are these: HT1080.hPSMA tumor, n=3. The method, then:
HT1080.hPSMA tumor cells were grown to 90% confluence and detached with Trypsin-EDTA 0.05%. Cells were resuspended in Hank's Balanced Salt Solution (HBSS) at a density of 5×10^7 cells/mL. 100 μL of HT1080.hPSMA cells (5×10^6 cells) were injected subcutaneously in the right flank of female athymic Balb/c AnNRj-Foxn1 mice (6 to 8 weeks of age). Tumors were grown until ˜250 mm^3 volume (average).
Comparison study: 0.1 mL of 50 μM solutions (2% DMSO, PBS, 250 nmol/kg) of the four conjugates (1 to 4) were injected intravenously. The animals were sacrificed in groups of 3 after 24 h, and blood and the following organs were extracted: HT1080.hPSMA tumor, heart, lungs, liver, kidney, spleen, stomach. The blood fraction was centrifuged, and the plasma (supernatant) was extracted. The organs were stored at −80° C. before being used for further analysis.
Timepoint study: 0.1 mL of a 50 μM solution (2% DMSO, PBS, 250 nmol/kg) of conjugate 1 was injected intravenously into the tail vein of the mice. The animals were sacrificed in groups of 3 after 6 h, 24 h, 48 h, and 72 h, and blood and the following organs were extracted: HT1080.hPSMA tumor, heart, lungs, liver, kidney, spleen, stomach. The blood fraction was centrifuged, and the plasma (supernatant) was extracted. The organs were stored at −80° C. before being used for further analysis.
Frozen plasma (50 μL) and mouse tissues (˜50 mg) were thawed, and 500 μL of PBS was added. Samples were kept on ice, and 50 μL solution of internal standard (d8-MMAE, 50 nM) was added. Samples were then homogenized at 4° C. with a tissue lyser for 2 minutes at 30 Hz for 4 cycles. After homogenization, samples were centrifuged (21'000 g, 10 min). Subsequently, 100 μL of supernatants were collected and added to 900 μL of acetonitrile (ACN) to induce protein precipitation. After centrifugation (21'000 g, 10 min), 800 μL of supernatants were collected and dried at room temperature with a vacuum centrifuge. Pellets were then resuspended in 20 μL of an aqueous solution containing 3% ACN and 0.1% of HCOOH, and 5 μL were injected into the UHPLC-MS system. Chromatographic separation was carried out on a Hypersil Gold C18 column (100 mm×2.1 mm, 1.9 μm particle size, 175 Å pore size) column temperature was set at 50° C. and a flow rate of 700 μL/min with a gradient program from 95% A (water+0.1% HCOOH), 5% B (ACN+0.1% HCOOH) to 35% of A in 2.5 minutes, from 35% A to 5% A in 0.4 minutes and 5% A was kept for 1.3 minutes before reconditioning at 95% A. The LC system was coupled to a Q-Exactive mass spectrometer via an Ion Max HESI Source. Ionization was carried out with a spray voltage of 3.5 kV; Sheath gas 40 units; Aux gas 10 units; capillary temperature of 380° C.; Aux gas temperature 450° C.; S-lens RF level 60. The mass spectrometer was operating in targeted Single Ion Monitoring mode (t-SIM) following the molecular ion 718.5113 m/z. The detector was working in positive ionization mode with the following parameters: resolution 70'000 (FWHM at 200 m/z); AGC target of 5×10^4; maximum injection time of 200 ms; isolation window 14 m/z; isolation offset 5 m/z. Peak areas of analytes and internal standards were integrated, and corresponding ratios were calculated. The ratios were then transformed into pmol/g of wet tissue using single-concentration external calibration points and corrected by the total weight of the sample analysed. The percentage of injected dose per gram (% ID/g) was finally calculated by normalizing the value based on the total dose injected into the mouse. Data analysis was performed with Skyline v22.2.0.351.

In series [2] the test system is HT1080.hPSMA xenografts. In words: Comparative therapy experiment in mice bearing HT1080.hPSMA xenografts (tumor volume). It counts as in vivo. The note with it: 250 nmol/kg i.v. on days 8, 10, 12 after tumor implantation, n=5. As for the experimental part: (§1) HT1080.hPSMA tumor cells were grown to 90% confluence and detached with Trypsin-EDTA 0.05%. Cells were resuspended in Hank's Balanced Salt Solution (HBSS) at a 5×10^7 cells/mL density. 100 μL of HT1080.hPSMA cells (5×10^6 cells) were injected subcutaneously in the right flank of female athymic Balb/c AnNRj-Foxn1 mice (6 to 8 weeks of age). Tumors were grown until volumes of […].
(§2) Tumor-bearing mice were randomized into groups of 5 and 0.1 mL of 50 μM solutions (2% DMSO, PBS, 250 nmol/kg) of the four conjugates (1 to 4), or saline solution (0.9% NaCl) was injected intravenously three times with 1-day break in between (days 8, 10, and 12 after tumor implantation).

A short description of series [3]: Body weight change during comparative therapy experiment (Example 4). It counts as in vivo, mice. The note with it: 250 nmol/kg i.v. on days 8, 10, 12, n=5. As for the experimental part: as §1, §2

Each structure is given as a SMILES string.

As to `CC[C@H](C)[C@@H]([C@@H](CC(=O)N1CCC[C@H]1[C@H](OC)[C@@H](C)C(=O)N[C@H](C)[C@@H](O)c1ccccc1)OC)N(C)C(=O)[C@@H](NC(=O)[C@H](C(C)C)N(C)C(=O)OCc1ccc(NC(=O)[C@@H]2CCCN2C(=O)CNC(=O)CCCCCN2C(=O)CC(SC[C@H](N)C(=O)NCCCCCC(=O)NC[C@H]3CC[C@H](C(=O)N[C@@H](Cc4ccc5ccccc5c4)C(=O)NCCCC[C@H](NC(=O)N[C@@H](CCC(=O)O)C(=O)O)C(=O)O)CC3)C2=O)cc1)C(C)C` (stereo partly drawn) [Conjugate 1], in the series with HT1080.hPSMA xenografts [1], the “In vivo anti-tumor activity, monotherapy (tumor volume)” value is “slightly lower anti-cancer efficacy as compared to Conjugate 5”. For the same molecule, the “Timepoint study of MMAE release” value with HT1080.hPSMA tumor (6 h, 24 h, 48 h, 72 h after i.v. 250 nmol/kg) was “stable payload accumulation in the tumors over an extended time”. Also, in the series with HT1080.hPSMA tumor (24 hours after intravenous injection, 250 nmol/kg), the “MMAE release in tumor” value came out at 4.5 % ID/g. In the series with HT1080.hPSMA xenografts [2], the Complete remissions was 1/5 and the “Therapeutic efficacy (tumor volume change)” value is “significant shrinkage of the tumors of all 5 mice”. Also, in series [3], the “Toxicity (body weight change %)” value is given as “lowest toxicity”.

The values above are taken from US12576154B2, “Conjugates of PSMA-binding moieties with cytotoxic agents” (PHILOCHEM AG, priority 2022, dated 2026).
